11 substances from patent publication US5827073A, “Photoreactive peptide derivatives” (Ludwig Institute for Cancer Research, priority 1995, dated 1998) can be followed below.

Entries after “also recorded” stand apart in the source; their conditions may differ. Where no end group is shown, it is not given here. [ ]: non-standard residue; d: D form. IASA = not defined here; Dap = NC[C@H](N)C(=O)O

Common to all, as to assay type: binding, human
Experiment [1] has as its system HLA class I molecules. Kind of experiment: Photoaffinity labelling of a panel of cell lines expressing different HLA class I molecules. The following applies: for photoaffinity labelling of 45 kDa HLA heavy chain on LG2-EBV cells: lane 11. How it is done:
(§1) All photoaffinity labelling procedures were performed essentially as described by Luescher et al., J. Immunol., 148:1003-011 (1992); Luescher et al., Nature, 351:72-74 (1991); Romero et al., J. Exp. Med., 177:1247-1256 (1993); Luescher et al., J. Biol. Chem., 269:5574-5592 (1994); and Romero et al., J. Immunol. Methods, 171:73-84 (1994). Briefly, HLA-A1 transfected C1R cells, cultured in hygromycin containing medium, or other cell types were resuspended in DMEM medium supplemented with 0.5% fetal calf serum, 10 mM HEPES and 0.25 μg/ml human β2-microglobulin, or as specified, at 6 ×10^6 cells/ml. One ml aliquotes were incubated in 6-well plates with 20 ×10^6 cpm of peptide derivative at 26° C. for 4 hours or as specified.
(§2) After UV irradiation with a 15 W mercury fluorescence lamp with an emission maximum at 365 nm and a band width of 80 nm for 4 minutes at a lamp-sample distance of 2 cm, the cells were washed 4 times with DMEM containing 2% calf serum and 1 time with PBS. The washed cells were lysed and boiled in reducing sample buffer supplemented with MgCl2 and subjected to SDS-PAGE. Alternatively the UV irradiated samples were lysed with NP-40 detergent (0.7%) on ice in the presence of HEPES (50 mM), leupeptin (10 μg/ml), PMSF (0.1 mM), and iodoacetamide (10 MM). Immunoprecipitation of HLA molecules with immobilized W6/32 mAb (Brodsky et al., J. Immunol., 128:129-135 (1982) and SDS-PAGE analysis of the immunoprecipitate were performed as described by Luescher et al., Electrophoresis, 8:508 (1987). The gels were evaluated by autoradiography and in some experiments by densitometry as described by Luescher et al., J. Immunol., 148:1003-1011 (1992). Each labelling experiment was performed at least twice.
The first 9 were HLA homozygous EBV transformed cells lines that have been described at the 10th International Histocompatibility Workshop (DuPont, Immunobiology of HLA, New York, Springer-Verlag, Vol. 1 (1987)). Workshop numbers are indicated as "ws#", and their HLA-C expression has been determined by PCR (Levine et al., Tissue Antigens, 44:174 (1994)). The heterozygous EBV transformed cell lines were derived from HLA-typed individuals. In the case of HLA-C, the serological typing was incomplete, as indicated by question marks. The remaining cell line was COS-7 cell transfected with HLA-Cw*1601. These cells were subjected to the same labelling procedure as described for FIG. 4B.

In experiment [2] the test system is HLA class I molecules. The description is as above. The conditions noted are these: COS-7 transfectant.
In experiment [3] the test system is HLA-A1. Kind of experiment: HLA-A1 photoaffinity labelling of HLA-A1 transfected C1R cells with radioiodinated peptide derivative. The conditions noted are these: β2-microglobulin, 26° C., UV irradiation, SDS-PAGE. How it is done:
as §1, §2
To perform competition assays, ^51 Cr labelled C1R HLA-A1 transfected cells were incubated in the presence of a suboptimal concentration of the MAGE-3 peptide 168-176 with cloned HLA-A1-restricted MAGE-3-specific CTL 20/38. […] Alternatively, the radioiodinated peptide derivatives were incubated with HLA-A1 transfected C1R cells and following UV irradiation, the lysates of the washed cells were analyzed by SDS-PAGE (10%, reducing conditions).
Following incubation of these cells with the radioiodinated peptide derivatives and UV irradiation, cell lysates were analyzed by SDS-PAGE (FIG. 4B).

The test system of experiment [4] is HLA-A1. Kind of experiment: Inhibition of HLA-A1 photoaffinity labelling on C1R/A1 cells by competitor peptides. The following applies: for binding of MAGE-3 peptide variants to HLA-A1: single alanine substitutions, method not stated.
For the next experiment, the system named is HLA-A29. Kind of experiment: Inhibition of HLA-A29 photoaffinity labelling on 807-02 cells by competitor peptides. The conditions noted are these: for inhibition of HLA-A29 photoaffinity labelling (HLA-A29 competitor activity / binding): 20-fold molar excess of competitor, FIG. 6B. How it is done:
as §1, §2
After UV irradiation, the cells were lysed and the immunoprecipitated HLA molecules were analyzed by SDS-PAGE and the resulting autoradiograms were evaluated by densitometry. All experiments were performed at least in triplicate. Hundred percent labelling refers to the labelling observed in the absence of a competitor peptide (FIG. 6A).

The subject of experiment [5] is HLA-A1. Kind of experiment: Dissociation of HLA-A1 peptide derivative complexes on C1R/A1 cells. The following applies: physiological conditions (37° C., no exogenous β2-microglobulin), after 6 hours. How it is done:
FIG. 3 is comprised of FIG. 3A, FIG. 3B and FIG. 3C. FIG. 3A represents SDS-PAGE analysis of EADPTGDap(IASA)SY incubated with C1R/A1 cells or WT51 cells in the presence of β2-microglobulin. FIG. 3B represents SDS-PAGE where incubation was performed at 37° C. or 26° C. in the absence of presence of β2-microglobulin, and the autoradiograms were evaluated by densitometry.
This considerable increase is mainly accounted for by an accordingly less efficient peptide binding under physiological conditions (i.e., 37° C. and no exogenous β2-microglobulin) . Another difference between the human and murine system is the difference in the stability of MHC class 1-peptide complexes. On C1R/A1 cells, the dissociation of HLA-A1 peptide derivative complexes under physiological conditions was remarkably slow, and even after 6 hours of incubation less than 20% dissociation took place (FIG. 3C). Similarly slow dissociations have been reported for other HLA class I molecules (DiBrino et al., J. Immunol., 152:620-631 (1994); Tsomides et al., Proc. Natl. Acad. Sci. USA, 88:11276 (1991)). In contrast, in the murine system, i.e., the Kd, Db of Ld system, under these conditions rapid dissociations with halftimes in the range of one hour have been reported (Luescher et al., Nature, 351:72-74 (1991); Luescher et al., J. Biol. Chem., 269:5574-5582 (1994); Romero et al., 1994, supra).

Where [6] appears, read: labelling with Dap(IASA)-ADPTGHSY on C1R HLA-A1 transfectants, 100-fold molar excess of competitor, densitometry.

Take “Dap(IASA)-ADPTGHSY ([Dap](IASA)ADPTGHSY; reading uncertain)”: in the experiment on HLA class I molecules [1] (806-04 (HLA-A29+)), the “HLA labelling on 806-04 cells” value is on record as “similarly efficient HLA labelling”. The “photoaffinity labelling of 45 kDa HLA heavy chain on 807-02 cells” value with HLA class I molecules [1] (807-02 (HLA-A29+), lane 15) is given as “significant photoaffinity labelling; also recorded: similarly efficient HLA labelling”. Further, in the experiment on HLA class I molecules [1] (EBV transformed line BM21 (HLA-A1), lane 1), the “photoaffinity labelling of 45 kDa HLA heavy chain on BM21 cells” value is listed as “significant photoaffinity labelling”. For the same substance, the “photoaffinity labelling of 45 kDa HLA heavy chain on MOU cells” value with HLA class I molecules [1] (EBV transformed line MOU (HLA-A*2902, HLA-B*4403), lane 4) was “significant photoaffinity labelling”. Further, the “photoaffinity labelling of 45 kDa HLA heavy chain on LG2-EBV cells” value with HLA class I molecules [1] is “significant photoaffinity labelling”; in the experiment on HLA class I molecules [1] (listed as SEQ ID NO: 8), “weak labelling”. Moreover, the “photoaffinity labelling of 45 kDa material on the other lines tested” value with HLA class I molecules [1] (lanes 2, 3, 5-10, 12-14) is recorded as “not detectable”. The “HLA labelling on COS-7 cells transfected with HLA-A1” value in the experiment on HLA class I molecules [2] is recorded as “displayed HLA labelling”. Also, in the experiment with HLA class I molecules [2], the “HLA labelling on COS-7 cells transfected with HLA-A29” value is on record as “displayed HLA labelling”. Also, the “HLA-A1 photoaffinity labelling (45 kDa HLA-A1 heavy chain)” value is “efficiently bound to and photoaffinity labelled HLA-A1” with HLA-A1 [3]; “efficiently labelled” in the experiment on HLA-A1 [3] (listed as derivative containing Dap(IASA) in position 1).
Turning to “MAGE-3: HLA-A1 restricted MAGE-3 peptide 168-176”, the “inhibition of HLA-A1 photoaffinity labelling” value with HLA-A1 [4] (setting [6]) is on record as “about 98%”; in the experiment on HLA-A1 [4] (labelling with SEQ ID NO: 1 on C1R/A1 cells, 300 fold molar excess of competitor), “completely inhibited”. Further, the “inhibition of HLA-A29 photoaffinity labelling (HLA-A29 competitor activity / binding)” value in the experiment with HLA-A29 is “approximately 80%”.
Regarding “MAGE-3 variant Tyr-176 replaced with phenylalanine: MAGE-3 peptide 168-176 with C-terminal tyrosine replaced by phenylalanine (EVDPIGHLF; UniProt P43357 168-176, looked up, variant Y176F)”, in the experiment on HLA-A29, the “inhibition of HLA-A29 photoaffinity labelling (HLA-A29 competitor activity / binding)” value is reported as “largely preserved the HLA-A29 competitor activity; also recorded: considerably diminishes binding”.
For the substance “MAGE-3 variant containing Ala in position 9: MAGE-3 peptide 168-176 with Tyr-176 replaced by alanine (EVDPIGHLA; UniProt P43357 168-176, looked up, variant Y176A)”, the “binding of MAGE-3 peptide variants to HLA-A1” value with HLA-A1 [4] is “substantially impaired its binding”. Moreover, the “inhibition of HLA-A29 photoaffinity labelling (HLA-A29 competitor activity / binding)” value in the experiment with HLA-A29 was determined as 13%.
As to “MAGE-3 variant alanine substitution of Asp-170: MAGE-3 peptide 168-176 with Asp-170 replaced by alanine (EVAPIGHLY; UniProt P43357 168-176, looked up, variant D170A)”, the “binding of MAGE-3 peptide variants to HLA-A1” value with HLA-A1 [4] is “substantially impaired its binding”.
Turning to “MAGE-3 variant alanine substitution of Val-169: MAGE-3 peptide 168-176 with Val-169 (position 2) replaced by alanine (EADPIGHLY; UniProt P43357 168-176, looked up, variant V169A)”, the “inhibition of HLA-A29 photoaffinity labelling (HLA-A29 competitor activity / binding)” value was “to a lesser degree” in the experiment with HLA-A29 and “impaired” with HLA-A29 (listed as MAGE-3 variant substitution in position 2 with alanine).
Turning to “Glu Ala Asp Pro Thr Gly Dap(IASA) Ser Tyr (EADPTG[Dap](IASA)SY; reading uncertain; also: radioiodinated, printed as Glu Ala Asp Pro Thr Gly Dap(IASA) Ser Tyr) [SEQ ID NO: 1]”, the “HLA labelling on eight other EBV cell lines” value in the experiment with HLA class I molecules [1] (eight other EBV cell lines expressing different HLA-A, B and C molecules) is recorded as “Equally negative”. Further, the “HLA labelling on TEM cells” value in the experiment on HLA class I molecules [1] (homozygous EBV transformed line TEM, HLA-A26, B-38) was “No detectable HLA labelling”. Also, the “HLA labelling on WT51 cells” value in the experiment with HLA class I molecules [1] (homozygous EBV transformed line WT51, HLA-A23, B65) is on record as “No detectable HLA labelling”. Also, the “HLA-A1 photoaffinity labelling (45 kDa HLA-A1 heavy chain)” value is recorded as “corresponds to the HLA-A1 heavy chain” in the experiment with HLA-A1 [3] and “efficiently labelled” in the experiment on HLA-A1 [3] (listed as derivative containing Dap(IASA) in position 7). The “dissociation of HLA-A1 peptide derivative complexes” value with HLA-A1 [5] was “less than 20%”.
Regarding “MAGE-3 variant alanine substitution of Ile-172: MAGE-3 peptide 168-176 with Ile-172 replaced by alanine (EVDPAGHLY; UniProt P43357 168-176, looked up, variant I172A)”, the “inhibition of HLA-A29 photoaffinity labelling (HLA-A29 competitor activity / binding)” value with HLA-A29 is on record as “markedly reduced the binding”.
Turning to “MAGE-3 variant substitution in position 2 with isoleucine: MAGE-3 peptide 168-176 with position 2 replaced by isoleucine (EIDPIGHLY; UniProt P43357 168-176, looked up, variant V169I)”, in the experiment with HLA-A29, the “inhibition of HLA-A29 photoaffinity labelling (HLA-A29 competitor activity / binding)” value is reported as “increased”.
Still for that read-out and setting: then “MAGE-3 variant substitution in position 2 with phenylalanine: MAGE-3 peptide 168-176 with position 2 replaced by phenylalanine (EFDPIGHLY; UniProt P43357 168-176, looked up, variant V169F)”, with “increased”.
As for “tyrosinase peptide 368-376: HLA-A2-restricted tyrosinase peptide 368-376 (IYMNGTMSQ; UniProt P14679 368-376, looked up, fragment) [reference compound]”, the “inhibition of HLA-A1 photoaffinity labelling” value with HLA-A1 [4] (setting [6]) was “No significant inhibition”. Moreover, in the experiment on HLA-A29 (labelling with Dap(IASA)-ADPTGHSY on 807-02 cells, 100-fold molar excess of competitor, densitometry), the “inhibition of HLA-A29 photoaffinity labelling” value was “no detectable inhibition”.
